In patent publication US20260102501A1, “ANTI-CANCER NUCLEAR HORMONE RECEPTOR-TARGETING COMPOUNDS” (Nuvation Bio Inc., priority 2022, published 2026):
Substitutions are numbered along the chain they refer to. Where two headings read alike, the source gives them in different places.

What was measured:
T47D cells = test: Cell viability assay (CellTiterGlo); type: cell-based; details: Homo sapiens, 144 h
22Rv1 cells = test: Cell viability assay (CellTiterGlo); details: Homo sapiens, 22Rv1, 144 h, read-out: 22RV1 (IC50, nM)
IEC6 cells = test: Cell viability assay (CellTiterGlo); details: Rattus norvegicus, IEC-6, 144 h, read-out: IEC-6 (IC50, nM)
Experimental: Cell viability assay: LNCap, 22Rv1, MCF7, MDAMB361, T47D, and IEC6 cells were seeded at a density of 500-2000 cells/well in 96 well plates, and a ‘T0’ (timepoint 0) was included along with the assay plate. The plates were then incubated at 37° C., 5% CO2 in a cell culture incubator overnight. On the next day, the ‘T0’ plate was assayed using CellTiterGlo (Promega, Inc) according to the manufacturer's instructions. The appropriate compounds were diluted in DMSO and added to the assay plate (final DMSO concentration of 0.1-0.2%) on the next day. The assay plates were incubated for 6 days at 37° C., 5% CO2. After the incubation period, the plates were assayed using CellTiterGlo (Promega, Inc) according to the manufacturer's instructions and luminescence was read on the En Vision plate reader. […] GraphPadPrism was used to analyze the data and determine GI50/IC50 values.

[1] = target: T1, AR (cytosol from LnCaP cells) (Homo sapiens, UniProt P10275, T878A); test: AR binding assay (3H-R1881 displacement)
T1 sequence (P10275 1-920 T878A): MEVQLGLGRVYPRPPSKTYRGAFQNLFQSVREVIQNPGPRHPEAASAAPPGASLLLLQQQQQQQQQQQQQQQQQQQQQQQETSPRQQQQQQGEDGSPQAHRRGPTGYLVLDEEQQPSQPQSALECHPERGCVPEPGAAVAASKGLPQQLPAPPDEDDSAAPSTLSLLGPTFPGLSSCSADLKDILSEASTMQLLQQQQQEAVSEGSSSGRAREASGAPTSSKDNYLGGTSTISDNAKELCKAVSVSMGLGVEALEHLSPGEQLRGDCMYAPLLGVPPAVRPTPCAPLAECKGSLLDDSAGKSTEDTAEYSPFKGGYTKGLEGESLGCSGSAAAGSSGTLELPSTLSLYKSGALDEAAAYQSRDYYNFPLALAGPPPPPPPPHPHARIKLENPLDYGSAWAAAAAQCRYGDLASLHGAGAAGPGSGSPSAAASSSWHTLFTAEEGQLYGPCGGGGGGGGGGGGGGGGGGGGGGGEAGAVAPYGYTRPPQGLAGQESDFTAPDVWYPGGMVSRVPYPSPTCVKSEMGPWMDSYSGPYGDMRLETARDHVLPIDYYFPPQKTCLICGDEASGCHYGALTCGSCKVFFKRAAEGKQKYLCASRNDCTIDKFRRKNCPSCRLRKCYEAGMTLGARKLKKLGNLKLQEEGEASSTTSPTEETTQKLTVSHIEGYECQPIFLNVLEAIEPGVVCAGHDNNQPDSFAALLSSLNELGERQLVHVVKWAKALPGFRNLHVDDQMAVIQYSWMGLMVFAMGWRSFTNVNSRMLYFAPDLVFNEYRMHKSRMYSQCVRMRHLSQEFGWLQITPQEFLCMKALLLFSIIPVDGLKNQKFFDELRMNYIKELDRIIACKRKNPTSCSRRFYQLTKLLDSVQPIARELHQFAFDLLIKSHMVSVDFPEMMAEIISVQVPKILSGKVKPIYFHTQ
Experimental: The plate was then centrifuged at 3000 rpm for 30 minutes at 4° C.

[2] = target: T2, full-length androgen receptor (HEK293 cells stably expressing) (Homo sapiens, UniProt P10275); test: AR antagonism assay (luciferase reporter)
T2 sequence (P10275 1-920): T1 sequence (P10275 1-920 T878A) with A878T
Experimental: AR antagonism assay: To evaluate AR antagonist activity, test compound was added to the assay plate (top dose 10 μM, 3 fold serial dilution, 10 point dose response). HEK293 cells stably expressing the full-length androgen receptor were seeded at a density of 20000 cells/well in the assay plate. The assay plate was then incubated at room temperature for 10 minutes and at 37° C. 5% CO2 for 20 minutes. Testosterone was added to the assay plate at 1 nM final concentration and the assay plate incubated at 37° C., 5% CO2 for 20 h. […] Steady-glo was added to the assay plate and mixed at room temperature for 20 minutes on an orbital shaker, before reading out on the En Vision plate reader.

[3] = target: T3, ligand binding domain of the glucocorticoid receptor (HEK293 cells stably expressing) (Homo sapiens, UniProt P04150); test: GR antagonism assay (luciferase reporter)
T3 sequence (P04150 524-758 limits assumed): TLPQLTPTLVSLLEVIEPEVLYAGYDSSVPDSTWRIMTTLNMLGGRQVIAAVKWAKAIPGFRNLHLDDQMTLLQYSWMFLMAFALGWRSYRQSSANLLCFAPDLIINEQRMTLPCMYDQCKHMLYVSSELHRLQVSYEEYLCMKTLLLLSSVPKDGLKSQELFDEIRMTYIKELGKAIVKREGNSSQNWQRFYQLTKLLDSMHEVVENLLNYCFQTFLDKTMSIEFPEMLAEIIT

[4] = target: T4, Progesterone PR-B receptors from human breast carcinoma T47D cells (Homo sapiens, UniProt P06401); test: PR binding assay ([3H] Progesterone displacement)
T4 sequence (P06401 1-933): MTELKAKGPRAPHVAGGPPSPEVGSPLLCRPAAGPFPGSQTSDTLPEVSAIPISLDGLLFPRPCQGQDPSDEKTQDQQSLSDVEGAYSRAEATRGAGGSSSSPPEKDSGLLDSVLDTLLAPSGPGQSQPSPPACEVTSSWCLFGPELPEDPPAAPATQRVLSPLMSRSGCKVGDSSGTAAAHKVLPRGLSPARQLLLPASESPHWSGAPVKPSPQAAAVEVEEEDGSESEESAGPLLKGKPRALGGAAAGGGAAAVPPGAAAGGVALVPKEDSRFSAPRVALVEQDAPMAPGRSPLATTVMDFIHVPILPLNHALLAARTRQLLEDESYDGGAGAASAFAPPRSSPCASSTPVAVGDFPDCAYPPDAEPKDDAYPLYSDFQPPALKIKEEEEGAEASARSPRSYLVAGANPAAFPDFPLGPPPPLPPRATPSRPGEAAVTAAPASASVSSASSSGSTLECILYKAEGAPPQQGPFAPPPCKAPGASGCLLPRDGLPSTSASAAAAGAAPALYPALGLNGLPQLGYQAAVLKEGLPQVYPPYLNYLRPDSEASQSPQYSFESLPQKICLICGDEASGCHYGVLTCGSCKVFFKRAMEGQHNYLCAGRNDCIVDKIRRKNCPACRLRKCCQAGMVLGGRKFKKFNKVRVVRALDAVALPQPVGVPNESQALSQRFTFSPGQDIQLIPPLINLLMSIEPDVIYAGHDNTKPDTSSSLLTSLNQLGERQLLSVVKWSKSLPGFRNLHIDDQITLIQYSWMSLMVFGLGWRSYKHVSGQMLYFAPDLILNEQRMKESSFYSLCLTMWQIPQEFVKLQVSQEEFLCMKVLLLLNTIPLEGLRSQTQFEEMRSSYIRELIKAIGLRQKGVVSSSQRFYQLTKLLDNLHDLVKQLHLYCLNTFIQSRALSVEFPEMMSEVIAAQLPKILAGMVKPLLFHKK

LNCap cells = test: Cell viability assay (CellTiterGlo); type: cell-based; details: Homo sapiens, 144 h, 6 days incubation, CellTiterGlo, read-out: LNCap (IC50)
[5] = 6 days incubation, CellTiterGlo, read-out: T47D (IC50)

Row | Compound | IC50 (T47D cells; read-out: T47D (IC50, nM)) [nM] | IC50 (22Rv1 cells) [nM] | IC50 (IEC6 cells) [nM] | IC50 [1] [nM] | IC50 [2] [nM] | IC50 [3] [nM] | IC50 [4] [nM] | IC50 (LNCap cells) [nM] | IC50 (T47D cells; [5]) [nM]
1 | CC[C@@]1(O)C(=O)OCc2c1cc1n(c2=O)Cc2cc3c(CN(C)C)c(OC(=O)N4CCN(C(=O)[C@H](CCCNC(N)=O)NC(=O)[C@@H](NCCCCCCN(C)c5ccc([C@H]6C[C@@]7(C)[C@@H](CC[C@]7(OC(C)=O)C(C)=O)[C@@H]7CCC8=CC(=O)CCC8=C76)cc5)C(C)C)CC4)ccc3nc2-1 [Compound 39, (S)-10-((dimethylamino)methyl)-4-ethyl-4-hydroxy-3,14-dioxo-3,4,12,14-tetrahydro-1H-pyrano[3′,4′:6,7]indolizino[1,2-b]quinolin-9-yl 4-((S)-2-((S)-2-((6-((4-((8S,11R,13S,14S,17R)-17-acetoxy-17-acetyl-13-methyl-3-oxo-2,3,6,7,8,11,12,13,14,15,16,17-dodecahydro-1H-cyclopenta[a]phenanthren-11-yl)phenyl)(methyl)amino)hexyl)amino)-3-methylbutanamido)-5-ureidopentanoyl)piperazine-1-carboxylate] | 101 to 1000 | 101 to 1000 | > 1000 | 10 to 100 | > 1000 | 101 to 1000 | < 10 | – | –
2 | CC[C@@]1(O)C(=O)OCc2c1cc1n(c2=O)Cc2c-1nc1cc(F)c(C)c3c1c2[C@@H](NC(=O)CN1CCN(CCCCCCN(C)c2ccc([C@H]4C[C@@]5(C)[C@@H](CC[C@]5(OC(C)=O)C(C)=O)[C@@H]5CCC6=CC(=O)CCC6=C54)cc2)CC1)CC3 [Compound 37, (8S,11R,13S,14S,17R)-17-acetyl-11-(4-((6-(4-(2-(((1S,9S)-9-ethyl-5-fluoro-9-hydroxy-4-methyl-10,13-dioxo-2,3,9,10,13,15-hexahydro-1H,12H-benzo[de]pyrano[3′,4′:6,7]indolizino[1,2-b]quinolin-1-yl)amino)-2-oxoethyl)piperazin-1-yl)hexyl)(methyl)amino)phenyl)-13-methyl-3-oxo-2,3,6,7,8,11,12,13,14,15,16,17-dodecahydro-1H-cyclopenta[a]phenanthren-17-yl acetate] | – | – | 101 to 1000 | < 10 | 101 to 1000 | 10 to 100 | < 10 | 101 to 1000 | 10 to 100
3 | CC[C@@]1(O)C(=O)OCc2c1cc1n(c2=O)Cc2cc3c(CN4CCN(C(=O)OCCCCN(C)c5ccc([C@H]6C[C@@]7(C)[C@@H](CC[C@]7(OC(C)=O)C(C)=O)[C@@H]7CCC8=CC(=O)CCC8=C76)cc5)CC4)c(O)ccc3nc2-1 [Compound 41, 4-((4-((8S,11R,13S,14S,17R)-17-acetoxy-17-acetyl-13-methyl-3-oxo-2,3,6,7,8,11,12,13,14,15,16,17-dodecahydro-1H-cyclopenta[a]phenanthren-11-yl)phenyl)(methyl)amino)butyl 4-(((S)-4-ethyl-4,9-dihydroxy-3,14-dioxo-3,4,12,14-tetrahydro-1H-pyrano[3′,4′:6,7]indolizino[1,2-b]quinolin-10-yl)methyl)piperazine-1-carboxylate] | – | – | 101 to 1000 | 10 to 100 | 101 to 1000 | < 10 | < 10 | 10 to 100 | 10 to 100
